≈ marks a conversion by molar mass, not a printed value. Where two headings read alike, the source gives them in different places. Each block holds one compound with its values, some of them ahead of it.
Tests used:
[1] = tested on: Bacillus cereus ATCC 10876; experiment: Broth microdilution MIC / MBC; type: cell-based; conditions: ATCC10876, B. cereus ATCC 10876
Method: (§1) The microdilution method was used to determine the MIC values of newly synthesized compounds. The antimicrobial activity of the thiosemicarbazides series was tested on ten reference bacterial strains purchased from the American Type Culture Collection (ATCC). Seven Gram-positive reference strains (S. aureus ATCC 29213, S. aureus ATCC 43300, S. aureus ATCC 6538, S. aureus ATCC 25923, S. epidermidis ATCC 12228, M. luteus ATCC 10240, and B. cereus ATCC 10876) and three Gram-negative reference bacteria (K. pneumoniae ATCC 13883, E. coli ATCC 25922, S. typhimurium ATCC 14028) were used. These bacterial strains are representatives of microorganisms that can cause the most common opportunistic infections among humans. The bacteria were grown on Mueller–Hinton agar (MHA) plates before examination. To perform the assay, all bacteria were placed in sterile saline (0.85% NaCl) to obtain a suspension of the optical density of the 0.5 McFarland standard (1.50 × 10^8 colony-forming units (CFUs)/mL). A solution of the tested compounds was prepared in dimethyl sulfoxide (DMSO) at a concentration of 50 mg/mL as a stock solution.
(§2) A 96-well microtiter plate and microbroth two-fold dilution method was used to determine the minimum inhibitory concentration (MIC) according to the EUCAST (European Committee on Antimicrobial Susceptibility Testing) reference recommendation. The solutions were then diluted with Mueller–Hinton broth (MHB, Biomaxima, Lublin, Poland) medium to obtain a solution with a basic concentration of 1000 µg/mL. Then, using the two-fold dilution method with MHB, the tested compounds were introduced into the wells of the microplate to provide a final concentration in the range of 0.49 to 1000 µg/mL. Then, 2 μL of bacterial inoculum with a density of 0.5 McFarland standard was added into each well. Each well was filled with a total volume of 100 μL. Then, microtiter plates were incubated for 18 ± 2 h at 35 °C. After incubation, the growth of bacteria was monitored by a Biotek ELx800 (Biokom, Janki, Poland) spectrophotometer at 600 nm (OD600). The MIC assays were performed in triplicate.
(§3) A negative control with MHB and without tested compounds was used. Clinically used anti-bacterial agents, cefuroxime and vancomycin, were included as positive controls for the purpose of comparison in a concentration range from 0.007 to 15.625 µg/mL.
(§4) The in vitro antimicrobial activity of the tested compounds was determined by the MIC, which was defined as the lowest concentration of the compound tested at which no visible growth of the test bacteria was observed. The MBC (the minimum bactericidal concentration) is defined as the lowest concentration of antimicrobial agent resulting in reduction in the viability of the initial bacterial inoculum by ≥99.9% on the plate. Generally, an MBC/MIC ratio less than 4 is considered bactericidal for an antimicrobial, and an MBC/MIC > 8 is indicative of bacteriostatic activity. For the MBC test, the Mueller–Hinton agar (MHA, Biomaxima, Poland) plate assay was used. MBC was determined after the broth dilution period of an MIC test has been completed. After the MIC detection, 5 µL aliquots from each well were plated on an MHA plate and grown at 35 °C overnight. The MBC values were determined by observing the first clear area on the agar plate that has no observable bacterial growth.

[2] = tested on: Micrococcus luteus ATCC 10240; experiment: Broth microdilution MIC / MBC; type: cell-based; conditions: ATCC10240, M. luteus ATCC 10240
Method: as §1, §2, §3, §4

[3] = tested on: Staphylococcus aureus ATCC 25923; experiment: Broth microdilution MIC / MBC; type: cell-based
Method: as §1, §2, §3, §4

[4] = tested on: Staphylococcus aureus ATCC 6538; experiment: Broth microdilution MIC / MBC; type: cell-based; conditions: ATCC6538, S. aureus ATCC 6538
Method: as §1, §2, §3, §4

[5] = tested on: Staphylococcus epidermidis ATCC 12228; experiment: Broth microdilution MIC / MBC; type: cell-based; conditions: ATCC12228, S. epidermidis ATCC 12228
Method: as §1, §2, §3, §4

[6] = tested on: SW 620 human metastatic colon cancer cells; experiment: MTT cytotoxicity assay; type: cell-based; conditions: Homo sapiens; SW 620, MTT, 72 h
Method: Both lines were obtained from American Type Culture Collection (ATCC, Rockville, MD, USA). The culture used to grow the SW 620 cells was prepared in MEM (ThermoSci, Waltham, MA, USA). The V79 cells were cultured in RPMI (Biowest SAS, Nuaillé, France) with the addition of 20 mM HEPES (Biowest, Nuaillé, France), 10% fetal bovine serum (FBS, Sigma-Aldrich, St. Louis, MO, USA), 100 µg/mL of streptomycin, and 100 U/mL of penicillin (Gibco, Grand Island, NY, USA). […] The MTT assay was used to establish the cytotoxic activity of the studied compounds. […] The process starts with the preparation of 96-well plates by placing cells at a density of 1 × 10^4 per well and incubating them for 24 h to adhere. […] Next, cells were incubated for 72 h at 37 °C with a 5% CO2. Then, a solution of MTT (0.5 mg/mL) was added to each well and plates were incubated for 4 h more in the same conditions. To dissolve precipitated formazan crystals, a mixture of DMSO and isopropanol (in a 1:1 ratio, v/v) was used. […] Cell viability was determined as the percentage of MTT reduction in the treated cells compared to the control group (unexposed cells). The relative MTT level, represented as a percentage, was calculated using the formula [A]/[B] × 100, where [A] stands for the absorbance of the treated cell sample and [B] for the absorbance of unexposed to studied compounds sample (control group).

[7] = tested on: V79 Chinese hamster lung cells; experiment: MTT cytotoxicity assay; type: cell-based; conditions: Cricetulus griseus, V 79 normal cells, 72 h
Method: Both lines were obtained from American Type Culture Collection (ATCC, Rockville, MD, USA). The culture used to grow the SW 620 cells was prepared in MEM (ThermoSci, Waltham, MA, USA). The V79 cells were cultured in RPMI (Biowest SAS, Nuaillé, France) with the addition of 20 mM HEPES (Biowest, Nuaillé, France), 10% fetal bovine serum (FBS, Sigma-Aldrich, St. Louis, MO, USA), 100 µg/mL of streptomycin, and 100 U/mL of penicillin (Gibco, Grand Island, NY, USA). The eligible level of cells confluence was 80–90%, and both cell cultures were maintained in a humidified incubator set at 37 °C with 5% CO2 until they reached it.
The MTT assay was used to establish the cytotoxic activity of the studied compounds. The mechanism of this method relies on enzymatic conversion of 3-(4,5-dimethylthiazol-2-yl)-2,5-diphentyltetrazolium bromide salt (MTT) into insoluble formazan crystals by mitochondrial dehydrogenases within viable cells.
The process starts with the preparation of 96-well plates by placing cells at a density of 1 × 10^4 per well and incubating them for 24 h to adhere. Afterwards, the cells were treated with different concentrations of thiosemicarbazide derivatives, from 20 to 100 µM, except the control group which remained not exposed. Next, cells were incubated for 72 h at 37 °C with a 5% CO2. Then, a solution of MTT (0.5 mg/mL) was added to each well and plates were incubated for 4 h more in the same conditions.
To dissolve precipitated formazan crystals, a mixture of DMSO and isopropanol (in a 1:1 ratio, v/v) was used. For the spectrophotometric survey, we used MultiscanGo from Thermo Scientific with the wavelength value set at 570 nm to measure absorbance.
Cell viability was determined as the percentage of MTT reduction in the treated cells compared to the control group (unexposed cells). The relative MTT level, represented as a percentage, was calculated using the formula [A]/[B] × 100, where [A] stands for the absorbance of the treated cell sample and [B] for the absorbance of unexposed to studied compounds sample (control group). […] To calculate IC50 values (concentration at which 50% of cell viability is inhibited), we used GraphPad Prism 8.0.1 software.

[8] = tested on: Staphylococcus aureus ATCC 43300; experiment: Broth microdilution MIC / MBC; type: cell-based; conditions: ATCC 43300 / MRSA
Method: as §1, §2, §3, §4

[9] = tested on: Rhabditis sp.; design: method as in PMID 35408557; conditions: reference drug; cited from earlier work

MIC [1]: 31.2 µg/mL (≈ 73.6 µM) | MIC [2]: 0.25 µg/mL (≈ 0.589 µM) | MIC ([3]; ATCC25923, S. aureus ATCC 25923, read-out: MIC): 0.49 µg/mL (≈ 1.15 µM) | MIC [4]: 0.98 µg/mL (≈ 2.31 µM) | MIC [5]: 0.25 µg/mL (≈ 0.589 µM)
SMILES: CO/N=C(\C(=O)N[C@@H]1C(=O)N2C(C(=O)O)=C(COC(N)=O)CS[C@H]12)c1ccco1 [Cef, cefuroxime, reference compound]

SMILES: COc1cccc2c1C(=O)c1c(O)c3c(c(O)c1C2=O)C[C@@](O)(C(=O)CO)C[C@@H]3O[C@H]1C[C@H](N)[C@H](O)[C@H](C)O1 [Ref, Doxorubicin, reference compound]
IC50 [6]: 1830 ± 100 nM | IC50 [7]: 460 ± 30 nM

SMILES: CN[C@H](CC(C)C)C(=O)N[C@H]1C(=O)N[C@@H](CC(N)=O)C(=O)N[C@H]2C(=O)N[C@H]3C(=O)N[C@H](C(=O)N[C@H](C(=O)O)c4cc(O)cc(O)c4-c4cc3ccc4O)[C@H](O)c3ccc(c(Cl)c3)Oc3cc2cc(c3O[C@@H]2O[C@H](CO)[C@@H](O)[C@H](O)[C@H]2O[C@H]2C[C@](C)(N)[C@H](O)[C@H](C)O2)Oc2ccc(cc2Cl)[C@H]1O [Van, vancomycin, reference compound]
MBC ([3]; ATCC25923): 2 µg/mL (≈ 1.38 µM) | MIC ([3]; ATCC25923): 2 µg/mL (≈ 1.38 µM) | MBC [8]: 2 µg/mL (≈ 1.38 µM) | MIC [8]: 2 µg/mL (≈ 1.38 µM)

SMILES: CCCSc1ccc2nc(NC(=O)OC)[nH]c2c1 [albendazole]
LC50 [9]: 19200 µg/mL (≈ 72500 µM)

Reference: publication PMC11013662, “New Thiosemicarbazide Derivatives with Multidirectional Biological Action” (Molecules, 2024)
